Results: ChEMBL document CHEMBL6134819, “Discovery of novel tranylcypromine-indazole-based derivatives as LSD1 inhibitors for acute myeloid leukemia treatment” (Eur J Med Chem, 2025)
Activity calls are given as the source filed them. The rule behind the calls is not given here.

What was measured:
[1] = target: T1, Amine oxidase [flavin-containing] B (Homo sapiens, UniProt P27338); assay: Inhibition of human N-terminal Flag-tagged MAOB extracted baculovirus infected in Sf9 cells measured after 0.5 hrs by MAO-Glo Assay; type: cell-based
T1 sequence (P27338 whole entry): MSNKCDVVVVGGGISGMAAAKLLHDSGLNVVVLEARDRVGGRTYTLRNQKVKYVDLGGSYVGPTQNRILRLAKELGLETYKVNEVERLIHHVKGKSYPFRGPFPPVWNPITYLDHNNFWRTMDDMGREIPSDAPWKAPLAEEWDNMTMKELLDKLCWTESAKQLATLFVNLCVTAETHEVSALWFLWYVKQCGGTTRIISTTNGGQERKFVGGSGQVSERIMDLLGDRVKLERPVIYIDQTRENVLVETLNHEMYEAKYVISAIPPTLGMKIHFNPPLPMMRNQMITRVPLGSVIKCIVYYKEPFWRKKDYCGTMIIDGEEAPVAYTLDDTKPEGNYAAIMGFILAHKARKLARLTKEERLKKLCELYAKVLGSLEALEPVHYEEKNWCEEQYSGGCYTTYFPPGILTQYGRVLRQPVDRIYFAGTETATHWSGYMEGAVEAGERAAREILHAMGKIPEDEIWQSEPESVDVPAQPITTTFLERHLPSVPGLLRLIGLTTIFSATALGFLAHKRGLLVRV

[2] = target: T2, Lysine-specific histone demethylase 1A (Homo sapiens, UniProt O60341); assay: Inhibition of LSD1 in human MV4-11 cells assessed as increase in H3K4 expression level at 2 to 4 micromol/L measured after 48 hrs by Western blot analysis; type: cell-based; details: dose 2-4 µmol/L
[3] = Metabolic stability in rat liver microsomes assessed as half life measured up to 60 mins in presence of NADPH by LC-MS/MS analysis; type: ADME, Microsome
MV4-11 [4] = assay: Induction of apoptosis in human MV4-11 cells assessed as late apoptotic cells at 4 micromol/L measured after 48 hrs by Annexin V-FITC/PI double staining based flow cytometry analysis (reference value: 7.70 %); type: functional; details: dose 4 µmol/L, at 4 µM
[5] = AUC (0 to infinity) in male Sprague-Dawley rat at 1 mg/kg, iv measured up to 24 hrs by LC-MS/MS analysis; type: ADME, organism-based; details: in vivo
[6] = Metabolic stability in mouse liver microsomes assessed as intrinsic clearance measured up to 60 mins in presence of NADPH by LC-MS/MS analysis; type: ADME, Microsome; details: read-out: CLH
MV4-11 [7] = assay: Induction of apoptosis in human MV4-11 cells assessed as increase in cleaved caspase-7 level at 2 to 4 micromol/L measured after 72 hrs by Western blot analysis; type: functional, cell-based; details: dose 2-4 µmol/L
MV4-11 [8] = assay: Induction of apoptosis in human MV4-11 cells assessed as increase in cleaved PARP level at 2 to 4 micromol/L measured after 72 hrs by Western blot analysis; type: functional, cell-based; details: dose 2-4 µmol/L
[9] = Oral bioavailability in male Sprague-Dawley rat at 10 mg/kg measured up to 24 hrs by LC-MS/MS analysis; type: ADME, organism-based; details: in vivo
MV4-11 [10] = assay: Induction of apoptosis in human MV4-11 cells assessed as early apoptotic cells at 2 micromol/L measured after 48 hrs by Annexin V-FITC/PI double staining based flow cytometry analysis (reference value: 2.01 %); type: functional; details: dose 2 µmol/L, at 2 µM
MV4-11 [11] = assay: Induction of apoptosis in human MV4-11 cells assessed as necrotic cells at 3 micromol/L measured after 48 hrs by Annexin V-FITC/PI double staining based flow cytometry analysis (reference value: 1.16 %); type: functional; details: dose 3 µmol/L, at 3 µM
[12] = Metabolic stability in human liver microsomes assessed as intrinsic clearance measured up to 60 mins in presence of NADPH by LC-MS/MS analysis; type: ADME, Microsome; details: read-out: CLH
[13] = Cmax in male Sprague-Dawley rat at 10 mg/kg, po measured up to 24 hrs by LC-MS/MS analysis; type: ADME, organism-based; details: in vivo
[14] = target: Voltage-gated inwardly rectifying potassium channel KCNH2 (Homo sapiens, UniProt Q12809); assay: Inhibition of human ERG by whole cell patch clamp assay; type: toxicity
MV4-11 [15] = assay: Upregulation of CD86 expression in human MV4-11 cells incubated for 48 hrs by flow cytometry analysis; type: functional, cell-based; details: dose 2-4 µmol/L
[16] = Metabolic stability in mouse liver microsomes assessed as half life measured up to 60 mins in presence of NADPH by LC-MS/MS analysis; type: ADME, Microsome
[17] = AUC (0 to t) in male Sprague-Dawley rat at 10 mg/kg, po measured up to 24 hrs by LC-MS/MS analysis; type: ADME, organism-based; details: in vivo
MV4-11 [18] = assay: Induction of apoptosis in human MV4-11 cells assessed as increase in early apoptosis measured after 48 hrs by Annexin V-FITC/PI double staining based flow cytometry analysis; type: functional, cell-based; details: dose 2-4 µmol/L
[19] = Half life in male Sprague-Dawley rat at 1 mg/kg, iv measured up to 24 hrs by LC-MS/MS analysis; type: ADME, organism-based; details: in vivo
MV4-11 [20] = assay: Induction of apoptosis in human MV4-11 cells assessed as viable cells at 3 micromol/L measured after 48 hrs by Annexin V-FITC/PI double staining based flow cytometry analysis (reference value: 89.13%); type: functional; details: MV4-11, 48 h, dose 3 µmol/L, read-out: Activity
HL-60 = assay: Antiproliferative activity against human HL-60 cells assessed as inhibition of cell growth measured after 7 days by cell-titer glo assay; type: functional, cell-based; details: HL-60, 168 h
[21] = target: T2, Lysine-specific histone demethylase 1A; assay: Induction of thermal stabilization of LSD1 in human MV4-11 cells at 50 to 75 degree C by […] analysis; type: cell-based
[22] = Clearance in male Sprague-Dawley rat at 1 mg/kg, iv measured up to 24 hrs by LC-MS/MS analysis; type: ADME, organism-based; details: in vivo
[23] = Solubility in PBS buffer at pH 7.4 measured after 2 hrs by LC-MS/MS analysis; type: physicochemical
THP-1 = assay: Antiproliferative activity against human THP-1 cells assessed as inhibition of cell growth measured after 7 days by cell-titer glo assay; type: functional, cell-based; details: THP-1, 168 h
MV4-11 [24] = assay: Induction of apoptosis in human MV4-11 cells assessed as late apoptotic cells at 3 micromol/L measured after 48 hrs by Annexin V-FITC/PI double staining based flow cytometry analysis (reference value: 7.70 %); type: functional; details: dose 3 µmol/L, at 3 µM
MV4-11 [25] = assay: Antiproliferative activity against human MV4-11 cells assessed as inhibition of cell growth measured after 7 days by cell-titer glo assay; type: functional, cell-based; details: MV4-11, 168 h
[26] = Cmax in male Sprague-Dawley rat at 1 mg/kg, iv measured up to 24 hrs by LC-MS/MS analysis; type: ADME, organism-based; details: in vivo
MV4-11 [27] = assay: Induction of apoptosis in human MV4-11 cells measured after 48 hrs by Annexin V-FITC/PI double staining based flow cytometry analysis; type: functional, cell-based; details: dose 2-4 µmol/L
MV4-11 [28] = assay: Induction of apoptosis in human MV4-11 cells assessed as necrotic cells at 2 micromol/L measured after 48 hrs by Annexin V-FITC/PI double staining based flow cytometry analysis (reference value: 1.16 %); type: functional; details: dose 2 µmol/L, at 2 µM
[29] = target: T2, Lysine-specific histone demethylase 1A; assay: Inhibition of LSD1 in human MV4-11 cells assessed as increase in H3K4me2 expression level at 2 to 4 micromol/L measured after 48 hrs by Western blot analysis; type: cell-based; details: dose 2-4 µmol/L

Chain of Voltage-gated inwardly rectifying potassium channel KCNH2 (Q12809 whole entry): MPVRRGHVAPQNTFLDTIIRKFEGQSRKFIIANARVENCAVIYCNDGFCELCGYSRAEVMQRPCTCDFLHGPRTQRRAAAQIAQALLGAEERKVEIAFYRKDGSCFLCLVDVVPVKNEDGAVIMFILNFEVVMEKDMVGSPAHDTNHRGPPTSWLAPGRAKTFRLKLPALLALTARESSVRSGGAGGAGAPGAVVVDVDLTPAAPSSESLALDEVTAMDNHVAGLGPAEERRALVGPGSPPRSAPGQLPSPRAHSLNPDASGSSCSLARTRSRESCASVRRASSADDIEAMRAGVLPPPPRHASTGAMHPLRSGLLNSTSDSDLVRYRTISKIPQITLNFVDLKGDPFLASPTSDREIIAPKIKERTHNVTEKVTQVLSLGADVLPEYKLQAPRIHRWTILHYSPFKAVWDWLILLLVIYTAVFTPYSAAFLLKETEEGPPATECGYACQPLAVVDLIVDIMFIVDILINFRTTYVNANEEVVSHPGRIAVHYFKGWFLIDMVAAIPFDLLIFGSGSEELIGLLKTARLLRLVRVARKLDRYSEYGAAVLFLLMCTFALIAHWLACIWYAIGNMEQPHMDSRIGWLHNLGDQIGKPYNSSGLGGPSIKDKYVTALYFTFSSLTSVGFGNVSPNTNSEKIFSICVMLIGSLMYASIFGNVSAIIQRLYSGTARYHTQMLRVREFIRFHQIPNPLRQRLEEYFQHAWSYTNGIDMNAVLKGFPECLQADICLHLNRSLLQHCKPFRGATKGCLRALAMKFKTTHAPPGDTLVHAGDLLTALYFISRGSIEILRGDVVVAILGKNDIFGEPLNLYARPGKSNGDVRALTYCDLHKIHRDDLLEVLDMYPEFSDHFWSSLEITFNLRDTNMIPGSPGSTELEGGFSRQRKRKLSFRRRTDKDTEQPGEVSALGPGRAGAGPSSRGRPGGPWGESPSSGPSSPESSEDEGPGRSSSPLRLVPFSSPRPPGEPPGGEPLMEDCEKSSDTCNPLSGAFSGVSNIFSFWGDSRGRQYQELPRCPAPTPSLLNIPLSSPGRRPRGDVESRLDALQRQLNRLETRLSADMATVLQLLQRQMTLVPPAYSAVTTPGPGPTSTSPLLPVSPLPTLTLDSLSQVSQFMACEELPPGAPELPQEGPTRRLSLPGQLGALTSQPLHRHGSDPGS

Structure (SMILES): Cl.O=S(=O)(c1ccccc1)n1ncc2cc(-n3cc(CN[C@@H]4C[C@H]4c4ccc(F)c(F)c4)nn3)ccc21
- IC50 [1]: 2650 nM
- inhibition [2]: Active
- half-life [3]: 3.94 min
- Activity (MV4-11 [4]): 15.39%
- AUC(0-inf) [5]: 483 ng·h/mL
- CLint scaled [6]: 261 mL/min/kg
- Activity (MV4-11 [7]): Active
- Activity (MV4-11 [8]): Active
- bioavailability [9]: 6.01%
- Activity (MV4-11 [10]): 2.52%
- Activity (MV4-11 [11]): 2.8%
- CLint scaled [12]: 108 mL/min/kg
- Cmax [13]: 89.8 ng/mL
- IC50 [14]: 576 nM
- Activity (MV4-11 [15]): Dose-dependent-effect
- half-life [16]: 5.3 min
- AUC(0-t) at 24 h [17]: 280 ng·h/mL
- Activity (MV4-11 [18]): Dose-dependent-effect
- half-life [19]: 41.4 min
- viability at 3 µM (MV4-11 [20]): 80.8%
- IC50 (HL-60): 1400 nM
- Activity [21]: Active
- clearance [22]: 35.3 mL/min/kg
- solubility at 2 h [23]: 1.43 µM
- IC50 (THP-1): 1960 nM
- Activity (MV4-11 [24]): 13.22%
- IC50 (MV4-11 [25]): 1400 nM
- Cmax [26]: 869 ng/mL
- Activity (MV4-11 [27]): Dose-dependent-effect
- Activity (MV4-11 [28]): 3.32%
- inhibition [29]: Active
